From ChEMBL document CHEMBL1201862, “PubChem BioAssay data set” (2004)
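Growth conditions: 96-well plates. Treatment: test compound, 48 hours, 5 concentrations. Analysis: linear interpolation between bracketing concentrations; unreached endpoints set to highest concentration. GI50 marks 50% less growth.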 Active and inactive are the calls of the source. No stated cut-off is given here; in the data, active = GI50 up to about 1.1 µM and inactive = higher. Non-standard residues stand in square brackets, D forms with d. Residues, ends and D or L forms follow the SMILES beside them. Ava = NCCCCC(=O)O; Mpa = O=C(O)CCS

Key:
Assay in all cases: DTP human tumour cell line panel, 48 h
[1] = system: BT-549
[2] = system: HCC 2998
[3] = system: HCT-116
[4] = system: HOP-62
[5] = system: HOP-92
[6] = system: MCF7
[7] = system: MDA-MB-231
[8] = system: MDA-MB-435
[9] = system: MDA-N
[10] = system: NCI-H460
[11] = system: NCI/ADR-RES
[12] = system: OVCAR-8
[13] = system: RPMI-8226
[14] = system: SK-MEL-2
[15] = system: SK-OV-3
[16] = system: SR
[17] = system: T47D
[18] = system: UACC-257
[19] = system: UACC-62
[20] = system: OVCAR-4

Row | SMILES | GI50 [1] | GI50 [2] | GI50 [3] | GI50 [4] | GI50 [5] | GI50 [6] | GI50 [7] | GI50 [8] | GI50 [9] | GI50 [10] | GI50 [11] | GI50 [12] | GI50 [13] | GI50 [14] | GI50 [15] | GI50 [16] | GI50 [17] | GI50 [18] | GI50 [19] | GI50 [20]
1 | CCOC(=O)NC(NNc1ccc([N+](=O)[O-])cc1[N+](=O)[O-])(C(F)(F)F)C(F)(F)F | 25.5 µM (inactive) | 23.3 µM (inactive) | 32.1 µM (inactive) | 32.9 µM (inactive) | 12.7 µM (inactive) | 62.5 µM (inactive) | 15.8 µM (inactive) | 42.6 µM (inactive) | 40.7 µM (inactive) | 27.5 µM (inactive) | 33.3 µM (inactive) | 30.8 µM (inactive) | 17.9 µM (inactive) | 47 µM (inactive) | 23.4 µM (inactive) | 5.79 µM (inactive) | 35.1 µM (inactive) | 43.1 µM (inactive) | 74.5 µM (inactive) | 
2 | CCOC(=O)C1CCCN1C(=O)c1ccccc1Cl (stereo unspecified) | > 100 µM (inactive) | > 100 µM (inactive) | > 100 µM (inactive) | > 100 µM (inactive) | 75.9 µM (inactive) | > 100 µM (inactive) | > 100 µM (inactive) | > 100 µM (inactive) | > 100 µM (inactive) | > 100 µM (inactive) | > 100 µM (inactive) | > 100 µM (inactive) | > 100 µM (inactive) |  |  | > 100 µM (inactive) | > 100 µM (inactive) | > 100 µM (inactive) | 22 µM (inactive) | 
3 | Cc1ccc2[nH]c3c(c(=O)n(C)c(=O)n3C)c2c1 | > 100 µM (inactive) | > 100 µM (inactive) | > 100 µM (inactive) | > 100 µM (inactive) | > 100 µM (inactive) | > 100 µM (inactive) | > 100 µM (inactive) | > 100 µM (inactive) | > 100 µM (inactive) |  | > 100 µM (inactive) | > 100 µM (inactive) | > 100 µM (inactive) | > 100 µM (inactive) | > 100 µM (inactive) | 84.9 µM (inactive) | > 100 µM (inactive) | > 100 µM (inactive) | > 100 µM (inactive) | > 100 µM (inactive)
4 | C=CCc1cccc(C(=O)/C=C(O)/C=C/c2ccccc2Cl)c1O | 37.4 µM (inactive) | 33.9 µM (inactive) | 7.29 µM (inactive) | 16.6 µM (inactive) | 25.6 µM (inactive) | 13.2 µM (inactive) | 36.7 µM (inactive) | 12.4 µM (inactive) | 27.7 µM (inactive) | 24.9 µM (inactive) | 11.5 µM (inactive) | 6.04 µM (inactive) | 6.67 µM (inactive) | 10.4 µM (inactive) | 23.6 µM (inactive) | 4.74 µM (inactive) | 9.48 µM (inactive) | 13.8 µM (inactive) | 13.4 µM (inactive) | 
5 | Oc1c2c(c(O)c3ccccc13)C1(N=N2)c2ccccc2Oc2ccccc21 | 10.7 µM (inactive) | 18.7 µM (inactive) | 3.17 µM (inactive) | 16 µM (inactive) | 15.8 µM (inactive) | 3.09 µM (inactive) | 13.9 µM (inactive) | 4.38 µM (inactive) | 6.58 µM (inactive) | 18.5 µM (inactive) | 9.57 µM (inactive) | 3.2 µM (inactive) | 2.88 µM (inactive) | 12 µM (inactive) | 16 µM (inactive) | 3.4 µM (inactive) | 7.55 µM (inactive) | 5.71 µM (inactive) | 11.1 µM (inactive) | 
6 | c1ccc(-c2cs[s+]c2)cc1 | > 100 µM (inactive) | > 100 µM (inactive) | > 100 µM (inactive) | > 100 µM (inactive) | > 100 µM (inactive) | > 100 µM (inactive) | > 100 µM (inactive) | > 100 µM (inactive) | > 100 µM (inactive) | 31.8 µM (inactive) | > 100 µM (inactive) | > 100 µM (inactive) |  |  | > 100 µM (inactive) | 52.2 µM (inactive) | > 100 µM (inactive) | > 100 µM (inactive) | > 100 µM (inactive) | > 100 µM (inactive)
7 | CCOC(=O)Cc1nc2c(N)ncnc2n1C1OC(COC(C)=O)C(OC(C)=O)C1OC(C)=O (stereo unspecified) | > 100 µM (inactive) | > 100 µM (inactive) | > 100 µM (inactive) | > 100 µM (inactive) | 83.9 µM (inactive) | > 100 µM (inactive) | > 100 µM (inactive) | > 100 µM (inactive) | > 100 µM (inactive) | > 100 µM (inactive) | > 100 µM (inactive) | > 100 µM (inactive) | > 100 µM (inactive) |  | > 100 µM (inactive) | > 100 µM (inactive) | > 100 µM (inactive) | > 100 µM (inactive) | > 100 µM (inactive) | 
8 | O=C(NNC(=O)c1ccc(Cl)cc1NC(=O)C12CC3CC(CC(C3)C1)C2)c1ccc(Cl)cc1 | 41.7 µM (inactive) | 17.1 µM (inactive) | 20.3 µM (inactive) | 19.8 µM (inactive) | 17.5 µM (inactive) | 27.9 µM (inactive) | 22 µM (inactive) | 18.6 µM (inactive) | 22 µM (inactive) | 23.2 µM (inactive) | 24.8 µM (inactive) | 32.7 µM (inactive) | 15.7 µM (inactive) |  | 25.3 µM (inactive) | 28.8 µM (inactive) | 27.9 µM (inactive) | 25.8 µM (inactive) | 21.7 µM (inactive) | 34.8 µM (inactive)
9 | COC(=O)c1cc2c(cc1C(=O)OC)[C@@]1(C)CCCC(C)(C)C1CC2 (stereo partly specified) | 28.6 µM (inactive) | 17.4 µM (inactive) | 17.9 µM (inactive) | 23.8 µM (inactive) | 9.91 µM (inactive) | 15 µM (inactive) | 17.3 µM (inactive) | 30.2 µM (inactive) | 21.9 µM (inactive) | 20.3 µM (inactive) | 16.3 µM (inactive) | 30.9 µM (inactive) | 10.7 µM (inactive) | 17.1 µM (inactive) |  | 15.1 µM (inactive) | 0.508 µM (active) | 19.5 µM (inactive) | 12.2 µM (inactive) | 22.4 µM (inactive)
10 | Cc1nn(C(=O)c2ccncc2)c2c1C(c1ccccc1[N+](=O)[O-])SC(=N)N2 (stereo unspecified) | > 10 µM (inactive) | > 10 µM (inactive) | > 10 µM (inactive) | > 10 µM (inactive) | > 10 µM (inactive) | > 10 µM (inactive) | > 10 µM (inactive) | > 10 µM (inactive) | > 10 µM (inactive) | > 10 µM (inactive) | > 10 µM (inactive) | > 10 µM (inactive) | > 10 µM (inactive) | > 10 µM (inactive) |  | > 10 µM (inactive) | > 10 µM (inactive) | > 10 µM (inactive) | > 10 µM (inactive) | > 10 µM (inactive)
11 | COc1cc2cc(C(=O)N3C[C@H](CCl)c4c3cc(O)c3ccccc43)[nH]c2c(OC)c1OC | 0.236 µM (active) | 0.16 µM (active) | 0.147 µM (active) | 0.044 µM (active) | 0.309 µM (active) | 0.0335 µM (active) | 1.69 µM (inactive) | 0.222 µM (active) | 1.29 µM (inactive) | 0.042 µM (active) | 0.136 µM (active) | 0.0942 µM (active) | 0.121 µM (active) | 0.203 µM (active) | 0.515 µM (active) | 0.0224 µM (active) | 1.71 µM (inactive) |  | 0.106 µM (active) | 0.261 µM (active)
12 | CN1C(=O)c2cccc3cc([N+](=O)[O-])cc(c23)C1=O | > 10 µM (inactive) | > 10 µM (inactive) | 8.61 µM (inactive) | > 10 µM (inactive) | > 10 µM (inactive) | 4.05 µM (inactive) | > 10 µM (inactive) | > 10 µM (inactive) | > 10 µM (inactive) |  | > 10 µM (inactive) | > 10 µM (inactive) | > 10 µM (inactive) |  | > 10 µM (inactive) | > 10 µM (inactive) | > 10 µM (inactive) | > 10 µM (inactive) | > 10 µM (inactive) | > 10 µM (inactive)
13 | O=c1[nH]c(=O)n(C2OC(CO)C(O)C(F)C2O)cc1F (stereo unspecified) | > 100 µM (inactive) | > 100 µM (inactive) | > 100 µM (inactive) |  | > 100 µM (inactive) | > 100 µM (inactive) | > 100 µM (inactive) | > 100 µM (inactive) | > 100 µM (inactive) | > 100 µM (inactive) | > 100 µM (inactive) | > 100 µM (inactive) | > 100 µM (inactive) | > 100 µM (inactive) | > 100 µM (inactive) | 25.4 µM (inactive) | > 100 µM (inactive) | > 100 µM (inactive) | > 100 µM (inactive) | > 100 µM (inactive)
14 | CC(NC(=O)CCS)C(=O)NC(C)C(=O)NC(Cc1c[nH]c2ccccc12)C(=O)NC(Cc1c[nH]cn1)C(=O)NC(CO)C(=O)NC(Cc1c[nH]c2ccccc12)C(=O)NCCCCC(=O)NC(C)C(=O)NC(CCC(N)=O)C(=O)NC(CCCCN)C(=O)NC(C)C(=O)NC(CCCNC(=N)N)C(=O)NC(CCCCN)C(N)=O (stereo unspecified) ([Mpa]AAWHSW[Ava]AQKARK-NH2; configuration not given here) | > 100 µM (inactive) |  | > 100 µM (inactive) | > 100 µM (inactive) | > 100 µM (inactive) | > 100 µM (inactive) | > 100 µM (inactive) | 45.9 µM (inactive) | 54.2 µM (inactive) | 37.2 µM (inactive) | > 100 µM (inactive) | 90.2 µM (inactive) | > 100 µM (inactive) | > 100 µM (inactive) | > 100 µM (inactive) | 87.5 µM (inactive) | 23.9 µM (inactive) | 24.2 µM (inactive) | 22.5 µM (inactive) | > 100 µM (inactive)
